Assay results as given in US20180186769A1, “6-AMINO-5-FLUORO-5-(FLUOROMETHYL)-2,3,4,5-TETRAHYDROPYRIDIN-2-YL-PHENYL-5-(METHOXY-D3)-PYRAZINE-2-CARBOXAMIDES AND FLUORINATED DERIVATIVES THEREOF AS BACE1 INHIBITORS” (H. Lundbeck A/S, priority 2016, published 2018).

Assays:
[1] = Clearance in hepatocytes, dog; assay type: in vitro ADME; settings: read-out: CLint, Dog (L/h/kg) ± SD (converted)
Source text: (§1) Deuterated compounds were compared to their non-deuterated parent counterparts to determine the impact of deuteration on clearance results

[2] = Clearance in microsomes, rat; assay type: in vitro ADME; settings: read-out: CLint, Rat (L/h/kg) ± SD (converted)
Source text: as §1

[3] = Clearance in hepatocytes, cyno; assay type: in vitro ADME; settings: cynomolgus monkey, read-out: CLint, Cyno (L/h/kg) ± SD (converted)
Source text: as §1

[4] = Clearance in microsomes, dog; assay type: in vitro ADME; settings: read-out: CLint, Dog (L/h/kg) ± SD (converted)
Source text: as §1

[5] = Clearance in hepatocytes, human; assay type: in vitro ADME; settings: read-out: CLint, Human (L/h/kg) ± SD (converted)
Source text: as §1

[6] = Clearance in hepatocytes, rat; assay type: in vitro ADME; settings: read-out: CLint, Rat (L/h/kg) ± SD (converted)
Source text: as §1

[7] = Clearance in microsomes, human; assay type: in vitro ADME; settings: read-out: CLint, Human (L/h/kg) ± SD (converted)
Source text: as §1

[8] = Clearance in microsomes, cyno; assay type: in vitro ADME; settings: cynomolgus monkey, read-out: CLint, Cyno (L/h/kg) ± SD (converted)
Source text: as §1

BACE1 [9] = target: T1, BACE1 (Homo sapiens, UniProt P56817); assay: BACE1 efficacy assay (FRET-based); assay type: biochemical; set-up: purchased Life Technologies P2985; settings: 10 μM test compound
T1 sequence (P56817 46-501): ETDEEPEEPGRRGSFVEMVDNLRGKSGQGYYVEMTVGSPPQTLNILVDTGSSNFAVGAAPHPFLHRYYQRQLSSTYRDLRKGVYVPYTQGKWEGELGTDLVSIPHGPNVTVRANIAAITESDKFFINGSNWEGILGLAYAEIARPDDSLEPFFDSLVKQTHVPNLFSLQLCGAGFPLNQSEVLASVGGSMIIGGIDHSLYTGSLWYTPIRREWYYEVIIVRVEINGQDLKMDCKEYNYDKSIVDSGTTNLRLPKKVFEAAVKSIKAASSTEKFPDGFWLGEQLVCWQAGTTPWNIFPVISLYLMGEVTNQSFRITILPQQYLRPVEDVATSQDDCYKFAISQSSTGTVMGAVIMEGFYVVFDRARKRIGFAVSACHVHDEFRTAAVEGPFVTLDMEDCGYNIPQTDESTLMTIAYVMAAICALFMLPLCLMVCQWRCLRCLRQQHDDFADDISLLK
Description: The efficacy assay was performed as a FRET-based assay using a commercially available BACE1 kit (Life Technologies, P2985). 2 μl test compound at 10 μM (final concentration) and 15 μl BACE1 enzyme from the kit (final concentration 3 nM) were preincubated for 15 minutes at room temperature before addition of 15 μl of substrate from the kit (250 nM final concentration) and incubated for additional 90 minutes at room temperature. The assay plate was subsequently read in a Pherastar (Ex540/Em590). The enzyme activity observed in presence of test compound were normalized to the enzyme activity observed in presence of buffer and 10 μM (final concentration) of the high affinity BACE1 reference inhibitor (S)-6-[3-Chloro-5-(5-prop-1-ynyl-pyridin-3-yl)-thiophen-2-yl]-2-imino-3,6-dimethyl-tetrahydropyrimidin-4-one, respectively. The efficacy of the test compounds was evaluated at 10 μM (final concentration) and defined as the percent inhibition of the enzyme activity using the equation % inhibition=100%−normalized enzyme activity in percent.

BACE1 [10] = target: T1, BACE1; assay: BACE1 binding assay (SPA-based); set-up: biotin (biotinylated form); made in house; host or cells: Freestyle HEK293 cells; settings: pH 4.5, 10 nM radioligand
Description: The binding assay was performed as SPA-based assay using a biotinylated form of human BACE1 recombinantly expressed and subsequently purified from Freestyle HEK293 cells. The binding assay was run in a 50 mM sodium acetate buffer, pH 4.5 containing 50 mM NaCl and 0.03% Tween-20 in white clear bottom 384 plates (Corning #3653). […] The plates were incubated for one hour at room temperature and counted in a Wallac Trilux counter. Total and non-specific binding were determined using buffer and 1 μM (final concentration) of the high affinity BACE1 reference inhibitor (S)-6-[3-chloro-5-(5-prop-1-ynyl-pyridin-3-yl)-thiophen-2-yl]-2-imino-3,6-dimethyl-tetrahydro-pyrimidin-4-one, respectively. For each test compound, a IC50 value (the concentration mediating 50% inhibition of the specific binding of the radioligand) was determined from concentration-response curve and used to calculate the Ki from the equation Ki=IC50/(1+L/Kd), where L and Kd are the final concentration of the radioligand used in the assay and the dissociation constant of the radioligand, respectively. The Kd of the radioligand was determined from saturation binding experiments.

P-gp (MDR1) = assay: MDCK-MDR1 assay (permeability, efflux ratio); assay type: in vitro ADME; settings: dog, Papp BA/Papp AB
Description: The permeability of the test compounds was assessed in MDCK-MDR1 cells that were cultured to confluency (4-6 days) in a 96 transwell plate. Test compounds were diluted with the transport buffer (HBSS+1% BSA) to a concentration of 0.5 μM and applied to the apical or basolateral side of the cell monolayer. Permeation of the test compounds from A to B direction or B to A direction was determined in triplicate over a 60-minute incubation time at 37° C. and 5% CO2 with a relative humidity of 95%. Test compounds were quantified by LC-MS/MS analysis based on the peaks area ratios of analyte/IS in both the receiver and donor wells of the transwell plate.
The apparent permeability coefficient Papp (cm/s) was calculated using the equation: […]
Where dCr/dt is the cumulative concentration of compound in the receiver chamber as a function of time (μM/s); Vr is the solution volume in the receiver chamber (0.05 mL on the apical side; 0.25 mL on the basolateral side); A is the surface area for the transport, i.e. 0.0804 cm^2 for the area of the monolayer; CO is the initial concentration in the donor chamber (μM).
Compounds are classified Pgp substrates when efflux ratio (Papp BA/Papp AB) is ≥2.

SMILES	CLint scaled at 0.1 µM [1] [L/h/kg]	CLint scaled at 0.3 µM [1] [L/h/kg]	CLint scaled at 1 µM [1] [L/h/kg]	CLint scaled at 1 µM [2] [L/h/kg]	CLint scaled at 0.1 µM [3] [L/h/kg]	CLint scaled at 0.3 µM [3] [L/h/kg]	CLint scaled at 1 µM [3] [L/h/kg]	CLint scaled at 1 µM [4] [L/h/kg]	CLint scaled at 0.1 µM [5] [L/h/kg]	CLint scaled at 0.3 µM [5] [L/h/kg]	CLint scaled at 1 µM [5] [L/h/kg]	CLint scaled at 0.1 µM [6] [L/h/kg]	CLint scaled at 0.3 µM [6] [L/h/kg]	CLint scaled at 1 µM [6] [L/h/kg]	CLint scaled at 1 µM [7] [L/h/kg]	CLint scaled at 1 µM [8] [L/h/kg]	inhibition at 10 µM (BACE1 [9]) [%]	Ki (BACE1 [10]) [nM]	efflux ratio at 60 min, 0.5 μM (P-gp (MDR1))	also measured
[2H]C([2H])([2H])Oc1cnc(C(=O)Nc2cc(F)c(F)c([C@]3(C)CC[C@@](F)(CF)C(N)=N3)c2)cn1 [Example 5, N-[3-[(2S,5S)-6-amino-5-fluoro-5-(fluoromethyl)-2-methyl-2,3,4,5-tetrahydropyridin-2-yl]-4,5-difluoro-phenyl]-5-(methoxy-d3)pyrazine-2-carboxamide]																	100	9.8	0.77	
[2H]C([2H])([2H])Oc1ccc(C(=O)Nc2ccc(F)c([C@@]3(C(F)F)N=C(N)CCC3(F)F)c2)nc1 [Compound Y]	98	84	57	1	80	32	14	21	< 0.1	< 0.1	0.29	1.4	1	2.1	0.5	12				
[2H]C([2H])([2H])Oc1cnc(C(=O)Nc2ccc(F)c([C@]3(CF)CC[C@@](F)(CF)C(N)=N3)c2)cn1 [Example 4, N-[3-[(2S,5S)-6-amino-5-fluoro-2,5-bis(fluoromethyl)-2,3,4,5-tetrahydropyridin-2-yl]-4-fluoro-phenyl]-5-(methoxy-d3)pyrazine-2-carboxamide]																	97	14	0.73	
[2H]C([2H])([2H])Oc1cnc(C(=O)Nc2cc(F)c(F)c([C@]3(C)CC[C@](F)(CF)C(N)=N3)c2)cn1 [Example 2, N-[3-[(2S,5R)-6-amino-5-fluoro-5-(fluoromethyl)-2-methyl-2,3,4,5-tetrahydropyridin-2-yl]-4,5-difluoro-phenyl]-5-(methoxy-d3)pyrazine-2-carboxamide]																	99	84	0.96	

The next lines start with results.

CLint scaled at 0.1 µM [1] [L/h/kg]	CLint scaled at 0.3 µM [1] [L/h/kg]	CLint scaled at 1 µM [1] [L/h/kg]	CLint scaled at 1 µM [2] [L/h/kg]	CLint scaled at 0.1 µM [3] [L/h/kg]	CLint scaled at 0.3 µM [3] [L/h/kg]	CLint scaled at 1 µM [3] [L/h/kg]	CLint scaled at 1 µM [4] [L/h/kg]	CLint scaled at 0.1 µM [5] [L/h/kg]	CLint scaled at 0.3 µM [5] [L/h/kg]	CLint scaled at 1 µM [5] [L/h/kg]	CLint scaled at 0.1 µM [6] [L/h/kg]	CLint scaled at 0.3 µM [6] [L/h/kg]	CLint scaled at 1 µM [6] [L/h/kg]	CLint scaled at 1 µM [7] [L/h/kg]	CLint scaled at 1 µM [8] [L/h/kg]	inhibition at 10 µM (BACE1 [9]) [%]	Ki (BACE1 [10]) [nM]	efflux ratio at 60 min, 0.5 μM (P-gp (MDR1))	SMILES	also measured
112	101	64	1.3	137	135	75	25	1	0.95	0.72	1.7	1.5	1	0.51	34				COc1cnc(C(=O)Nc2ccc(F)c([C@]3(C)CC[C@@](F)(CF)C(N)=N3)c2)cn1 [Compound Z]	CLint scaled at 0.1 µM ([2]; 0.1 microM): 2.7 L/h/kg; CLint scaled at 0.3 µM ([2]; 0.3 microM): 1.8 L/h/kg; CLint scaled at 0.1 µM ([4]; 0.1 microM): 40 L/h/kg; CLint scaled at 0.3 µM ([4]; 0.3 microM): 31 L/h/kg; CLint scaled at 0.1 µM ([7]; 0.1 microM): 1 L/h/kg; CLint scaled at 0.3 µM ([7]; 0.3 microM): 0.75 L/h/kg; CLint scaled at 0.1 µM ([8]; 0.1 microM): 70 L/h/kg; CLint scaled at 0.3 µM ([8]; 0.3 microM): 61 L/h/kg
																97	67	0.85	[2H]C([2H])([2H])Oc1cnc(C(=O)Nc2ccc(F)c([C@]3(CF)CC[C@](F)(CF)C(N)=N3)c2)cn1 [Example 3, N-[3-[(2S,5R)-6-amino-5-fluoro-2,5-bis(fluoromethyl)-2,3,4,5-tetrahydropyridin-2-yl]-4-fluoro-phenyl]-5-(methoxy-d3)pyrazine-2-carboxamide]	
